According to US12577247B2 (BUGWORKS RESEARCH, INC., priority 2021, dated 2026):

Experiments:
A2A receptor [1] = molecular target: T1, A2A receptor (Homo sapiens, UniProt P29274); assay: A2aR antagonism IC50, cAMP TR-FRET (Lance Ultra) in HEK-293 cells, NECA as agonist; format: cell-based; conditions: A2AR IC50 (nM) (@5 nM NECA), HEK-293 cells expressing A2A receptor; agonist NECA 5 nM (EC90); inhibition of cAMP;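 further: compounds tested from 10 µM down to 0.08 nM in buffer with Rolipram at room temperature, TR-FRET cAMP signal read 1 h after adding Eu-cAMP tracer and ULight anti-cAMP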
T1 construct: host or cells: HEK-293
T1 sequence (P29274 whole entry): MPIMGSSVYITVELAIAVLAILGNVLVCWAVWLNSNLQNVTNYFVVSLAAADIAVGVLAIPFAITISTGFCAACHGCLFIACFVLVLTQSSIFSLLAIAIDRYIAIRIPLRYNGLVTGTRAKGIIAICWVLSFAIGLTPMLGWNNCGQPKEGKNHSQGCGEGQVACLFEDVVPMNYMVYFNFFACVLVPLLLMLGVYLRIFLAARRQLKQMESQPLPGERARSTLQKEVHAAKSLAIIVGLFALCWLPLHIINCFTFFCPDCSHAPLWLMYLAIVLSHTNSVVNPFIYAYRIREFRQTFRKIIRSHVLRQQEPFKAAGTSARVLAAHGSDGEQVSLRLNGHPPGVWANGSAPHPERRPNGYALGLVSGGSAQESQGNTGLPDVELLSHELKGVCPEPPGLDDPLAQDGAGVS
Description: (§1) Adenosine A2A receptors and Adenosine A2B receptors induce the production of cAMP when activated/stimulated by an agonist like adenosine or 5′-(N-Ethylcarboxamido) adenosine (NECA). A Time-Resolved Fluorescence Energy Transfer (TR-FRET) assay was used to show the inhibition of this cAMP production in HEK cells upon treatment with compounds of the Formula I of the present disclosure.
(§2) HEK-293 cells expressing A2A receptor (#ES-011-C) or A2B receptor (#ES 013-C) were obtained from PerkinElmer. Cells were maintained in DMEM medium supplemented with 10% FBS and 200 μg/mL of G418 at 37° C. and 5% CO2. The cells were cultured in antibiotic free medium for a period of 16-20 hours prior to the assay. All subsequent steps of the assay are performed at room temperature (22-24° C.). The cells were harvested at about 80% confluency by gentle flushing with PBS, recovered by centrifugation and resuspended in stimulation buffer at the concentration of 5.0×10^6 cells/mL.
(§3) The assays were conducted in a stimulation buffer containing 1×DMEM, 5 mM HEPES, 0.1% BSA stabilizer and 20-30 μM Rolipram. Serial dilutions of compounds were made in stimulation buffer to achieve a final concentration of high micromolar (10 μM to 0.08 nM) in the reaction volume of 10 μL. The total reaction volume was 10 μL (5 μL of cells, 2.5 μL of antagonist and 2.5 μL of agonist). The stimulation was ended, and the reaction completed by adding 5 μL of 4× Eu-cAMP tracer working solution and 5 μL of 4× ULight-anti-cAMP working solution. The TR-FRET signal was measured after 1-hour incubation using a Tecan M1000 reader.

A2B receptor [2] = molecular target: T2, A2B receptor (Homo sapiens, UniProt P29275); assay: A2bR antagonism IC50, cAMP TR-FRET (Lance Ultra) in HEK-293 cells, NECA as agonist; format: cell-based; parameters: host or cells: HEK-293; conditions: HEK-293 cells expressing A2B receptor; agonist NECA 30 nM (EC90); inhibition of cAMP
T2 sequence (P29275 1-332): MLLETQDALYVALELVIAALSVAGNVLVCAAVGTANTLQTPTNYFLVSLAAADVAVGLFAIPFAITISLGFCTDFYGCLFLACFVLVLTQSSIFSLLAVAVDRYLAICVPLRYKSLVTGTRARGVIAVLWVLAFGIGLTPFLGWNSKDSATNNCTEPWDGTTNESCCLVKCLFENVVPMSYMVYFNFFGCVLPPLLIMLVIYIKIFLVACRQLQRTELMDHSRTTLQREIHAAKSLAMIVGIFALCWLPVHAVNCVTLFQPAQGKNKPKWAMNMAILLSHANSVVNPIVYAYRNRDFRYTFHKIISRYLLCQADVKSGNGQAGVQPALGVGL
Description: as §1, §2, §3

A2A receptor [3] = molecular target: T1, A2A receptor; assay: A2aR antagonism IC50, cAMP TR-FRET in HEK-293 cells, high concentration of adenosine (30 μM); format: cell-based; conditions: HEK-293 cells expressing A2A receptor; agonist adenosine 30 μM; 2% HSA; inhibition of cAMP; read-out: A2AR IC50 (nM) (@30 μM Adenosine);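 further: compounds added 10 min before adenosine, then 30 min stimulation at room temperature in buffer with 100 µM rolipram and 30 µM EHNA, signal read 1 h after detection reagents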
A2B receptor [4] = molecular target: T2, A2B receptor; assay: A2bR antagonism IC50, cAMP TR-FRET in HEK-293 cells, high concentration of adenosine (30 μM); conditions: A2BR IC50 (nM) (@30 μM Adenosine), HEK-293 cells expressing A2B receptor; agonist adenosine 30 μM; 2% HSA; inhibition of cAMP;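 further: compounds preincubated 10 min with cells, then adenosine stimulation 30 min at room temperature in buffer with Rolipram 100 µM and EHNA 30 µM, TR-FRET read after 1 h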
Protocol: A Time-Resolved Fluorescence Energy Transfer (TR-FRET) assay was used to show the inhibition of this cAMP production in HEK cells upon treatment with compounds of the Formula I of the present disclosure.
HEK-293 cells expressing A2A receptor (#ES-011-C) or A2B receptor (#ES 013-C) were obtained from PerkinElmer. Cells were maintained in DMEM medium supplemented with 10% FBS and 200 μg/mL of G418 at 37° C. and 5% CO2. The cells were cultured in antibiotic free medium for a period of 16-20 hours prior to the assay. All subsequent steps of the assay are performed at room temperature (22-24° C.). […] About 1500 cells per well were pre-incubated for 10 minutes with the compounds of the present invention before adding the agonist Adenosine at a high concentration (30 μM) for a total stimulation time of 30 minutes. […] The assays were conducted in a stimulation buffer containing 1×DMEM, 5 mM HEPES, 2% Human serum albumin (HSA), 100 μM Rolipram and 30 μM erythro-9-(2-hydroxy-3-nonyl) adenine (EHNA). Serial dilutions of compounds were made in stimulation buffer to achieve a final concentration of high micromolar in a reaction volume of 10 μL. The total reaction volume was 10 μL (5 μL of cells, 2.5 μL of antagonist and 2.5 μL of agonist). […] The stimulation was ended, and the reaction completed by adding 5 μL of 4× Eu-cAMP tracer working solution and 5 μL of 4× ULight-anti-cAMP working solution. The TR FRET signal was measured after 1-hour incubation using a Tecan M1000 or a PerkinElmer Victor Nivo plate reader.

SMILES | IC50 (A2A receptor [1]) | IC50 (A2B receptor [2]) | IC50 (A2A receptor [3]) | IC50 (A2B receptor [4])
CCc1c(C)nn2c(N)c(C#N)c(NCCc3nn(C(C)(C)CO)cc3F)nc12 [Example 62] | 5 nM | 42 nM | – | –
Cc1nn2c(N)c(C#N)c(NCCc3ccn(CCO)n3)nc2c1Cl [Example 35] | 0.92 nM | 16 nM | – | –
Cc1nn2c(N)c(C#N)c(NCCc3ccn(C4CCC4CO)n3)nc2c1Cl (stereo not drawn) [Example 67, 7-amino-3-chloro-5-((2-(1-(2-(hydroxymethyl)cyclobutyl)-1H-pyrazol-3-yl)ethyl)amino)-2-methylpyrazolo[1,5-a]pyrimidine-6-carbonitrile] | 0.1 nM | – | 50 nM | 1880 nM
CCc1c(C)nn2c(N)c(C#N)c(NCCc3ccn(CC4(CO)CC4)n3)nc12 [Example 63, 7-amino-3-ethyl-5-((2-(1-((1-(hydroxymethyl)cyclopropyl)methyl)-1H-pyrazol-3-yl)ethyl)amino)-2-methylpyrazolo[1,5-a]pyrimidine-6-carbonitrile] | – | 7.3 nM | 810 nM | 2800 nM
CCc1c(C)nn2c(N)c(C#N)c(NCCc3ccn(C)n3)nc12 [Example 30] | – | 4.5 nM | – | –
CCc1c(C)nn2c(N)c(C#N)c(NCCc3ccn(CC4CC(O)C4)n3)nc12 (stereo not drawn) [Example 85, 7-amino-3-ethyl-5-((2-(1-((3-hydroxycyclobutyl)methyl)-1H-pyrazol-3-yl)ethyl)amino)-2-methylpyrazolo[1,5-a] pyrimidine-6-carbonitrile] | – | 3 nM | 211 nM | 1070 nM
Cc1nn2c(N)c(C#N)c(NCCc3ccn(CC4CC(O)C4)n3)nc2c1Cl (racemic) [Example 82, (+−)-7-amino-3-chloro-5-((2-(1-((3-hydroxycyclobutyl)methyl)-1H-pyrazol-3-yl)ethyl)amino)-2-methylpyrazolo[1,5-a]pyrimidine-6-carbonitrile] | – | 7 nM | 110 nM | 2340 nM
CCc1c(C)nn2c(N)c(C#N)c(NCCc3cccc(C4CC4CO)n3)nc12 (stereo not drawn) [Example 60, 7-amino-3-ethyl-5-((2-(6-(2-(hydroxymethyl)cyclopropyl)284yridine-2-yl)ethyl)amino)-2-methylpyrazolo[1,5-a]pyrimidine-6-carbonitrile] | – | 0.94 nM | 211 nM | –
CCc1c(C(F)F)nn2c(N)c(C#N)c(NCCc3cccc(C4CC4CO)n3)nc12 (stereo not drawn) [Example 59, 7-amino-2-(difluoromethyl)-3-ethyl-5-((2-(6-(2-(hydroxymethyl)cyclopropyl)pyridin-2-yl)ethyl)amino)pyrazolo[1,5-a]pyrimidine-6-carbonitrile] | – | 9 nM | 1080 nM | –
Cc1nn2c(N)c(C#N)c(NCCc3cccc(CO)n3)nc2c1CC1CC1 [Example 46, 7-amino-3-(cyclopropylmethyl)-5-((2-(6-(hydroxymethyl)pyridin-2-yl)ethyl)amino)-2-methylpyrazolo[1,5-a]pyrimidine-6-carbonitrile] | 1.9 nM | – | – | –
CCc1cnn2c(N)c(C#N)c(NCCc3cc(C)n(C4(CO)CC4)n3)nc12 [Example 80, 7-amino-3-ethyl-5-((2-(1-(1-(hydroxymethyl)cyclopropyl)-5-methyl-1H-pyrazol-3-yl)ethyl)amino) pyrazolo[1,5-a]pyrimidine-6-carbonitrile] | – | 12 nM | 83 nM | 3800 nM
CCc1c(C)nn2c(N)c(C#N)c(NCCc3ccn(C(C)CO)n3)nc12 (stereo not drawn) [Example 81, 7-amino-3-ethyl-5-((2-(1-(1-hydroxypropan-2-yl)-1H-pyrazol-3-yl)ethyl)amino)-2-methylpyrazolo[1,5-a]pyrimidine-6-carbonitrile] | – | 3.6 nM | 63 nM | 1050 nM
Cc1nn2c(N)c(C#N)c(NCCc3cccn(CCO)c3=O)nc2c1Cl [Example 93, 7-amino-3-chloro-5-((2-(1-(2-hydroxyethyl)-2-oxo-1,2-dihydropyridin-3-yl)ethyl)amino)-2-methylpyrazolo[1,5-a]pyrimidine-6-carbonitrile] | – | – | 50 nM | 1230 nM
CCc1c(C)nn2c(N)c(C#N)c(NCCc3ccn(C4CCC4CN)n3)nc12 (stereo not drawn) [Example 109, 7-amino-5-((2-(1-(2-(aminomethyl)cyclobutyl)-1H-pyrazol-3-yl)ethyl)amino)-3-ethyl-2-methylpyrazolo[1,5-a]pyrimidine-6-carbonitrile] | – | – | 402 nM | 723 nM

Results, then the molecule that gave them:

IC50 (A2A receptor [1]) | IC50 (A2B receptor [2]) | IC50 (A2A receptor [3]) | IC50 (A2B receptor [4]) | SMILES
2 nM | 53 nM | – | – | Cc1nn2c(N)c(C#N)c(NCCc3cccc(C(C)(C)O)n3)nc2c1C [Example 16, 7-amino-5-({2-[6-(2-hydroxypropan-2-yl)pyridin-2-yl]ethyl}amino)-2,3-dimethylpyrazolo[1,5-a]pyrimidine-6-carbonitrile]
0.9 nM | 3.7 nM | – | – | COc1cccc(CCNc2nc3c(C)c(C)nn3c(N)c2C#N)n1 [Example 12, 7-amino-5-((2-(6-methoxypyridin-2-yl)ethyl)amino)-2,3-dimethylpyrazolo[1,5-a]pyrimidine-6-carbonitrile]
1 nM | 7 nM | – | – | Cc1cccc(CC(C)Nc2nc3c(C)c(C)nn3c(N)c2C#N)n1 (single isomer, unassigned) [Example 14, 7-amino-2,3-dimethyl-5-{[1-(6-methylpyridin-2-yl)propan-2-yl]amino}pyrazolo[1,5-a]pyrimidine-6-carbonitrile]
– | 102 nM | – | – | Cc1cccc(CC(C)Nc2nc3c(C)c(C)nn3c(N)c2C#N)n1 (single isomer, unassigned) [Example 15, 7-amino-2,3-dimethyl-5-{[1-(6-methylpyridin-2-yl)propan-2-yl]amino}pyrazolo[1,5-a]pyrimidine-6-carbonitrile]
1 nM | 18 nM | – | – | CCn1ccc(CCNc2nc3c(C)c(C)nn3c(N)c2C#N)n1 [Example 29, 7-amino-5-{[2-(1-ethyl-1H-pyrazol-3-yl)ethyl]amino}-2,3-dimethylpyrazolo[1,5-a]pyrimidine-6-carbonitrile]
0.3 nM | 27 nM | – | – | Cc1nn2c(N)c(C#N)c(NCCc3cccc(C(C)(C)CO)n3)nc2c1C [Example 53, 7-amino-5-((2-(6-(1-hydroxy-2-methylpropan-2-yl)pyridine-2-yl)ethyl)amino)-2,3-dimethylpyrazolo[1,5-a]pyrimidine-6-carbonitrile]
– | 1130 nM | – | – | Cc1nn2c(N)c(C#N)c(NCc3cccc(C(C)(C)O)n3)nc2c1C [Example 9, 7-amino-5-({[6-(2-hydroxypropan-2-yl)pyridin-2-yl]methyl}amino)-2,3-dimethylpyrazolo[1,5-a] pyrimidine-6-carbonitrile]
0.88 nM | 73 nM | – | – | Cc1ccc(F)c(CCNc2nc3c(C)c(C)nn3c(N)c2C#N)n1 [Example 41, 7-amino-5-((2-(3-fluoro-6-methylpyridin-2-yl)ethyl)amino)-2,3-dimethylpyrazolo[1,5-a]pyrimidine-6-carbonitrile]
10 nM | 1330 nM | – | – | Cc1cccc(C(C)Nc2nc3c(C)c(C)nn3c(N)c2C#N)n1 (stereo not drawn) [Example 1, 7-amino-2,3-dimethyl-5-{[1-(6-methylpyridin-2-yl)ethyl]amino}pyrazolo[1,5-a]pyrimidine-6-carbonitrile]
2.1 nM | 36 nM | – | – | CCc1c(C)nn2c(N)c(C#N)c(NCCc3ccc(OC)cn3)nc12 [Example 19, 7-Amino-3-ethyl-5-((2-(5-methoxypyridin-2-yl)ethyl)amino)-2-methylpyrazolo [1,5-a]pyrimidine-6-carbonitrile]
– | 11 nM | 284 nM | 9070 nM | Cc1nn2c(N)c(C#N)c(NCCc3cccc(C(F)(F)CO)n3)nc2c1Cl [Example 64, 7-amino-3-chloro-5-((2-(6-(1,1-difluoro-2-hydroxyethyl)pyridin-2-yl)ethyl)amino)-2-methylpyrazolo[1,5-a]pyrimidine-6-carbonitrile]
– | 654 nM | – | – | Cc1cccc(CCNc2nc3c(CC(C)C)c(C)nn3c(N)c2C#N)n1 [Example 27, 7-amino-3-(isopropylmethyl)-2-methyl-5-((2-(6-methylpyridin-2-yl)ethyl)amino) pyrazolo[1,5-a]pyrimidine-6-carbonitrile]
– | 4 nM | – | – | CCc1c(C)nn2c(N)c(C#N)c(NCCc3cccc(OC)n3)nc12 [Example 20, 7-Amino-3-ethyl-5-((2-(6-methoxypyridin-2-yl)ethyl)amino)-2-methylpyrazolo [1,5-a]pyrimidine-6-carbonitrile]
7.2 nM | – | – | – | Cc1c(C2CC2)nn2c(N)c(C#N)c(NCCc3cccc(C(C)(C)O)n3)nc12 [Example 47, 7-amino-2-cyclopropyl-5-((2-(6-(2-hydroxypropan-2-yl)pyridin-2-yl)ethyl)amino)-3-methylpyrazolo[1,5-a]pyrimidine-6-carbonitrile]
– | 2.5 nM | – | – | CCc1c(C)nn2c(N)c(C#N)c(NC(C)Cc3cccc(C)n3)nc12 (racemic) [Example 24, 7-Amino-3-ethyl-2-methyl-5-((1-(6-methylpyridin-2-yl)propan-2-yl)amino) pyrazolo[1,5-a]pyrimidine-6-carbonitrile]
